Data on six molecules can be found in patent publication US20050003367A1, “Methods and compositions for rapid development of screening assays” (priority 2002, published 2005).

Entries after “also recorded” stand apart in the source; their conditions may differ.

One data set deals with T1, MC4R (Homo sapiens, UniProt P32245).
T1 construct: endogenous in cells; host or cells: HEK 293 P3D8 (4XCRE-β-lactamase reporter) clones, e.g. MC4.49
Kind of data set: MC4R CRE β-lactamase reporter assay in HEK 293 (P3D8) MC4 cell lines. It counts as cell-based. The settings on record: cells pretreated with the MC4 antagonist. The protocol:
(§1) Unless otherwise noted, β-lactamase reporter expression was determined by plating cells into 96 well plates at approx. 10^5 cells/well, and loading with 1 μM CCF2-AM in Hanks' balanced salt solution (HBSS) containing phenol red at 22 ° C. for a period between 1 and 2 h. For visual determination, an epifluorescence microscope (Zeiss 25CFL) equipped with a 10× Fluor objective was used. The filter set contained a 405/20 exciter, a 420 dichroic mirror, and a 435 long-pass filter (Chroma Technologies, Brattleboro Vt.). Fluorescence was then quantified on a Cytofluor 4000 fluorescence plate reader using 395/12.5 nm excitation and emission was detected via 460/50 (blue) and 535/40 (green) band pass filters. Emission intensities from blank wells containing no cells were subtracted from wells containing cells. Calibration of β-lactamase enzyme levels were determined in cell lysates as described by Zlokarnik et al.(1998) Science 279 84-88. Replicate samples of cells were lysed by three cycles of freeze thawing in PBS. β-Lactamase activity in the lysate was measured from the rate of hydrolysis of 1 nmol of CCF2 in 100 μl in a Cytofluor fluorimeter. […]
Three out of the eight characterized MC4 cell lines were chosen for further pharmacological characterization that included a dose response curve with NDP-α-MSH. […] The calculated values were consistent with published data. […]
On the technique in general: Reporter assays use an easily measured gene product as a stand-in for the process of interest.

Data set [1] deals with T2, Mineralocorticoid receptor (MR) (Homo sapiens, UniProt P08235).
T2 construct: expressed in transfected cells; host or cells: HEK293 7xUAS-β-lactamase line (HEKUASBLA), clone 1B4. pKI-Gal4-DBD-MR was integrated by homologous recombination
T2 sequence (P08235 726-964 limits assumed): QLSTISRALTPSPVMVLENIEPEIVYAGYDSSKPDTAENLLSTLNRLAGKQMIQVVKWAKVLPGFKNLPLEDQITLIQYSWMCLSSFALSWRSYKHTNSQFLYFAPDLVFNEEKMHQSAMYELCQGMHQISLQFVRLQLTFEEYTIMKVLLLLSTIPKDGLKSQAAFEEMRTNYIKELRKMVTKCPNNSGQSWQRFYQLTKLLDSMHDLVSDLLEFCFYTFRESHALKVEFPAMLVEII
Kind of data set: MR Gal4-DBD UAS β-lactamase reporter assay, HEK/UAS/GAL4-MR clone 1B4. In kind it is cell-based.

The target in data set [2] is T3, Vanilloid Receptor-1 (VR1) (Homo sapiens, UniProt Q8NER1).
T3 construct: endogenous in cells; host or cells: HEK-293 clones 5B11 and 5B5
T3 sequence (Q8NER1 whole entry): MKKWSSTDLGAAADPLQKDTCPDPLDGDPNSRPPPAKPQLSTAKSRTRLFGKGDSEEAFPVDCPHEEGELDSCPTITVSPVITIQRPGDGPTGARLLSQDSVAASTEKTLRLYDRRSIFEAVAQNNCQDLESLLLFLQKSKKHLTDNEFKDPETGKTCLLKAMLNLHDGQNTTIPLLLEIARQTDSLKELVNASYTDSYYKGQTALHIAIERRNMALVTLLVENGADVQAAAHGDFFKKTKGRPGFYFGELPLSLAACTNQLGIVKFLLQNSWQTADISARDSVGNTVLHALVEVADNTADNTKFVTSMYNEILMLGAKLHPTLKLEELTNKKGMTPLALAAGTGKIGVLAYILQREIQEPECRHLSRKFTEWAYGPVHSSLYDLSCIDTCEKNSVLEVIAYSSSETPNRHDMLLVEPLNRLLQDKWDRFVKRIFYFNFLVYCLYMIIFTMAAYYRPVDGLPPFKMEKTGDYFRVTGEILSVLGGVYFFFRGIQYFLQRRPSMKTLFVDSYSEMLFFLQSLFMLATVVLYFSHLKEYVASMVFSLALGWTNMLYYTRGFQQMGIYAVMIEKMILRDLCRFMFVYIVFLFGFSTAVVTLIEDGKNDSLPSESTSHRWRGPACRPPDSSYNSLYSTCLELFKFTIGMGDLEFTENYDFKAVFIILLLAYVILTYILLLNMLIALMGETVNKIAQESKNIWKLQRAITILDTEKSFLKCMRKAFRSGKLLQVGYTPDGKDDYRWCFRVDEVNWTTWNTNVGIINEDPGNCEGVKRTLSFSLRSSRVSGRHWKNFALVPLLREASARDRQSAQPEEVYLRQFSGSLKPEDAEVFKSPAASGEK
The experiment in a line: VR1 calcium response assay in HEK-293 clones (VIPRII, 96-well). It counts as cell-based. Conditions: for IC50: responses to 10 μM capsaicin, capsazepine 0.01-100 μM.

The conditions of data set [3]: cited from earlier work.
The target in the next data set is T4, PPARγ (Homo sapiens, UniProt P37231).
T4 construct: expressed in transfected cells; host or cells: HEK293 7xUAS-β-lactamase line (HEKUASBLA), clone 4G5; The targeting vector was integrated by homologous recombination
T4 sequence (P37231 238-503 limits assumed): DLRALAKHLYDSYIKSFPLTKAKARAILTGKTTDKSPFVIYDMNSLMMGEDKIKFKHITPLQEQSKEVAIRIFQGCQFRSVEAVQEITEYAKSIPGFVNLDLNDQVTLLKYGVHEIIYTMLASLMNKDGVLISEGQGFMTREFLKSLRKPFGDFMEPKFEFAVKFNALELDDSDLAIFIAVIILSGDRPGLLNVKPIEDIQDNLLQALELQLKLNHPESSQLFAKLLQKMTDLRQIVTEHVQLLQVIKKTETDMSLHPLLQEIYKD
The experiment in a line: PPARγ Gal4-DBD UAS β-lactamase reporter assay, HEK293 clone 4G5. It counts as cell-based. The settings on record: 10 μM or 32 μM BADGE 1 h at 37° C. before rosiglitazone 1 nM-10 μM. Here is the method:
as §1
Single cells were sorted into 96 well plates and expanded. […] At least 16 h before the assay, cell clones on one copy of the assay plates were stimulated as described above. β-lactamase activity was detected in individual clones as described in Example 6. […]

T1 sequence (P32245 whole entry): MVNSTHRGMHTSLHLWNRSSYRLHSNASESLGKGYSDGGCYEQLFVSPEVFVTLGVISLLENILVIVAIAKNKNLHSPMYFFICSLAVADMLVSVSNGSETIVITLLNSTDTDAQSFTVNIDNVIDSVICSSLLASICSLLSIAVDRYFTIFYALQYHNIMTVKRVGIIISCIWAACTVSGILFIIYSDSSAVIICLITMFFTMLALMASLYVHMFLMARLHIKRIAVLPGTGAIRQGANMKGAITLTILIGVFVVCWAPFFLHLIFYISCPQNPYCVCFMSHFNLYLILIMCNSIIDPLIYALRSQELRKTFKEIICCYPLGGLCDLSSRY

In the case of HS024, on MC4R, the “inhibition of the response to α-MSH or NDP-α-MSH” value is recorded as “inhibited in a concentration-dependant manner”. One may read the EC50 as the concentration that produces a half-maximal response. The molecule `C[C@]12CCC(=O)C=C1CC[C@@H]1[C@@H]2[C@@H](O)C[C@@]2(C)[C@H]1CC[C@]2(O)C(=O)CO` [Cortisol] showed an EC50 in data set [1] of 0.004 µM. The term IC50 denotes the concentration needed to halve the response being measured. Regarding `Oc1cc2c(cc1O)CN(C(=S)NCCc1ccc(Cl)cc1)CCC2` [capsazepine], the “effect on VR1 responses to capsaicin” value in data set [2] (50 μM capsazepine, clones 5B11 and 5B5) is given as “failed to respond to any concentration of capsaicin; also recorded: inhibited”. For the same molecule, the IC50 in data set [2] (clone 5B5) stood at 7.1 µM; in data set [2] (clone 5B11), 12.8 µM.

Turning to `C=C(C)[C@]12C[C@@H](C)[C@@]34O[C@](Cc5ccccc5)(O[C@@H]1[C@@H]3C=C(COC(=O)Cc1ccc(O)c(OC)c1)C[C@]1(O)C(=O)C(C)=C[C@@H]41)O2` [resiniferatoxin], the EC50 in data set [2] was 0.427 µM. Broadly, the pKa is the pH at which an ionisable group is half protonated. Regarding SNARF-4F carboxylic acid, the pKa in data set [3] is approximately 6.4. Regarding `CC(C)(c1ccc(OCC2CO2)cc1)c1ccc(OCC2CO2)cc1` (centres unmarked) [BADGE], at PPARγ, the “inhibition of cell response to rosiglitazone” value is recorded as “Inhibition of the cell response to the stimuli”.
